Reference: publication PMC8132342, “Antimalarial properties and molecular docking analysis of compounds from Dioscorea bulbifera L. as new antimalarial agent candidates” (BMC Complementary Medicine and Therapies, 2021)
Read-outs that look alike come from different tables or passages of the source.

Assays:
[1] = system: CQ-sensitive P. falciparum (3D7 strain); experiment: Antimalarial activity, 3H-hypoxanthine uptake inhibition, 3D7 strain; assay type: cell-based; settings: Plasmodium falciparum
Experimental: (§1) The culture of P. falciparum malaria parasites was continuously performed using standard methods with some modifications. RPMI-1640 medium was supplemented with noninfected type O-positive red blood cells (2% hematocrit), 2 mg/ml sodium bicarbonate, 10 μg/ml hypoxanthine (Sigma-Aldrich, New Delhi, India), 4.8 mg/ml HEPES (Himedia, Mumbai, India), 10% human AB serum and 2.5 μg/ml gentamicin (Sigma-Aldrich, New Delhi, India).
(§2) Antimalarial activity of extracts and compounds from D. bulbifera against P. falciparum K1 and 3D7 strains were assessed by measuring ^3H-hypoxanthine incorporated in parasite nucleic acids using the modified technique of Desjadins et al.. The red cell suspension at 1–2% hematocrit containing 1% ring stage P. falciparum-infected red blood cells was incubated with various concentrations of extracts (2.50–80 μg/ml) and pure compounds (2.5–80 μM) in 96-well culture plates. Parasites were incubated at 37 °C for 24 h, then ^3H-hypoxanthine (25 μl of 0.025 μCi/μl) was added to each well, and the plates were maintained under conditions of 93% N2, 3% O2 and 4% CO2 at 37 °C for an additional 24 h. The samples were transferred to a glass fiber filter (Wallac, Turku, Finland). ^3H-Hypoxanthine uptake was then assessed using a MicroBeta TriLux Liquid Scintillation Counter (PerkinElmer, USA). Each assay condition was performed in triplicate independently. The concentration of samples that inhibited the uptake of ^3H-hypoxanthine by 50% (IC50) assessed by log dose response curve using WinNonlin software version 4.1 (Pharsight Corporation, CA) was used as a marker of antimalarial effect potency.

[2] = system: chloroquine (CQ)-resistant P. falciparum (K1 strain); experiment: Antimalarial activity, 3H-hypoxanthine uptake inhibition, K1 strain; assay type: cell-based, Plasmodium falciparum
Experimental: as §1, §2

[3] = In vitro cytotoxicity, MTT assay; assay type: cell-based; settings: African green monkey
Experimental: The toxicity of D. bulbifera extracts and isolated compounds was assessed by 3-(4,5-dimethythiazol-2-yl)-2,5-diphenyl tetrazolium bromide (MTT) assay according to a previous method. Briefly, Vero cells (Elabscience, Wuhan, Hubei, China) were seeded into 96-well plates at a density of 10^4 cell/ml and incubated for 24 h at 37 °C with 5% CO2. Cells were then treated with various concentrations of extracts and compounds for 48 h at 37 °C with 5% CO2. Doxorubicin (Sigma-Aldrich, New Delhi, India) was used as a toxic control. Subsequently, MTT solution was added to each well, and the plate was incubated for 2 h in a CO2 incubator. The medium was then removed, and 100 μl of DMSO was added to each well. Finally, the optical density was determined at a wavelength of 590 nm using a microplate reader. The assay was performed in duplicate.

[4] = pure compounds, P. falciparum 3D7 strain, mean ± S.D. of three determinations, read-out: IC50 3D7
[5] = Vero cells, MTT, 48 h, read-out: CC50
[6] = Plasmodium falciparum, K1, pure compounds, P. falciparum K1 strain, mean ± S.D. of three determinations, read-out: IC50 K1

For C[C@H]1[C@H](OC(=O)CCC(=O)O)O[C@@H]2O[C@@]3(C)CC[C@H]4[C@H](C)CC[C@@H]1[C@@]24OO3 [Artesunate, artesunate, reference compound], the IC50 ([1]; positive controls (footnote d), P. falciparum 3D7 strain, read-out: IC50 3D7) was 0.00181 ± 0.00019 µM and the IC50 ([2]; Plasmodium falciparum, K1, positive controls (footnote d), P. falciparum K1 strain, read-out: IC50 K1) was 0.00053 ± 4e-05 µM.

Work on CCN(CC)CCCC(C)Nc1ccnc2cc(Cl)ccc12 (stereo not drawn) [Chloroquine, chloroquine, reference compound] yielded an IC50 ([1]; 3D7, read-out: IC50 3D7) of 0.00991 ± 0.00056 µM and an IC50 ([2]; Plasmodium falciparum, K1, read-out: IC50 K1) of 0.103 ± 0.0045 µM.

In the case of CC(=O)OC1CC2C(=O)OC(c3ccoc3)CC2(C)C2CC3CC(C(=O)O3)C12 (stereo not drawn) [Compound 1, 8-epidiosbulbin E acetate], the IC50 [1, 4] is reported as > 80 µM, the CC50 at 48 h [3, 5] is reported as > 80 µM and the IC50 [2, 6] is reported as > 80 µM.

In the case of CC(=O)OC1CC2(O)C(=O)OC(c3ccoc3)CC2(C)C2CC3CC(C(=O)O3)C12 (stereo not drawn) [Compound 2, 15,16-epoxy-6α-O-acetyl-8β-hydroxy-19-nor-clero-13(16),14-diene-17,12;18,2-diolide], the IC50 [1, 4] is reported as > 80 µM, the CC50 at 48 h [3, 5] is reported as > 80 µM and the IC50 [2, 6] is reported as > 80 µM.

With CCC(C(C)C)C(C)CC(C)C1CCC2C3C=CC4CC(OC5OC(CO)C(O)C(O)C5O)CCC4(C)C3CCC12C (stereo not drawn) [Compound 3] the IC50 [1, 4] was > 80 µM, the CC50 at 48 h [3] was > 80 µM and the IC50 [2, 6] was > 80 µM.

For COc1c(-c2ccc(O)c(O)c2)oc2cc(O)cc(OC)c2c1=O [Compound 4, 3,5-dimethoxy quercetin], the IC50 [1, 4] was 70.8 ± 2.32 µM, the CC50 at 48 h [3, 5] was > 80 µM and the IC50 [2, 6] was 44 ± 1.47 µM.

In the case of Oc1cc(O)c2c(c1)O[C@H](c1ccc(O)c(O)c1)[C@@H](O)C2 [Compound 5, (+)-catechin], the IC50 [1, 4] is reported as > 80 µM, the CC50 at 48 h [3, 5] is reported as > 80 µM and the IC50 [2, 6] is reported as > 80 µM.

For O=c1c(O)c(-c2ccc(O)c(O)c2)oc2cc(O)cc(O)c12 [Compound 6, quercetin], the IC50 [1, 4] was 51 ± 7.28 µM, the CC50 at 48 h [3, 5] was > 80 µM and the “fold higher activity than 3,5-dimethoxyquercetin (4)” value ([2]; K1 strain) was “approximately 1.5 fold”. The “fold higher activity than quercetin-3-O-β-D-galactopyranoside (14)” value ([2]; K1 strain) was ~2 fold, the IC50 [2, 6] was 28.5 ± 0.9 µM and the inhibition at 80 µM ([2]; Plasmodium falciparum, at a concentration of 80 μM, K1 strain) was 97%.

In the case of O=c1c(O)c(-c2ccc(O)cc2)oc2cc(O)cc(O)c12 [Compound 7, kaempferol], the IC50 [1, 4] is reported as > 80 µM, the CC50 at 48 h [3, 5] is reported as > 80 µM and the IC50 [2, 6] is reported as 62.5 ± 1.33 µM.

For NC(=O)NC1NC(=O)NC1=O (stereo not drawn) [Compound 8, allantoin], the IC50 [1, 4] was > 80 µM, the CC50 at 48 h [3, 5] was > 80 µM and the IC50 [2, 6] was > 80 µM.

With Oc1cc(O)cc(CCc2ccc(O)cc2O)c1 [Compound 9, 2,4,3′,5′-tetrahydroxybibenzyl] the IC50 [1, 4] was 58.9 ± 4.31 µM, the CC50 at 48 h [3] was 16.7 µM and the IC50 [2, 6] was 40 ± 2.5 µM.

For Oc1cc(O)c2c(c1)CCc1cc(O)c(O)cc1-2 [Compound 10, 2,4,6,7-tetrahydroxy-9,10-dihydrophenanthrene], the IC50 [1, 4] was > 80 µM, the CC50 at 48 h [3, 5] was > 80 µM and the IC50 [2, 6] was 58.3 ± 1.96 µM.

With O=c1c(O)c(-c2cc(O)c(O)c(O)c2)oc2cc(O)cc(O)c12 [Compound 11, myricetin] the IC50 [1, 4] was > 80 µM, the CC50 at 48 h [3, 5] was > 80 µM and the IC50 [2, 6] was > 80 µM.

In the case of O=c1c(O[C@@H]2O[C@H](CO)[C@@H](O)[C@H](O)[C@H]2O)c(-c2ccc(O)c(O)c2)oc2cc(O)cc(O)c12 [Compound 13, quercetin-3-O-β-D-glucopyranoside], the IC50 [1, 4] is reported as > 80 µM, the CC50 at 48 h [3, 5] is reported as > 80 µM and the IC50 [2, 6] is reported as > 80 µM.

With O=c1c(O[C@@H]2O[C@H](CO)[C@H](O)[C@H](O)[C@H]2O)c(-c2ccc(O)c(O)c2)oc2cc(O)cc(O)c12 [Compound 14, quercetin-3-O-β-D-galactopyranoside] the IC50 [1, 4] was 68.9 ± 4.31 µM, the CC50 at 48 h [3, 5] was > 80 µM and the IC50 [2, 6] was 48.9 µM. For the same molecule, the IC50 ([2]; pure compounds, P. falciparum K1 strain, mean ± S.D. of three determinations, read-out: IC50 K1) was 48.3 ± 1.21 µM.

For COc1cccc2c1C(=O)c1c(O)c3c(c(O)c1C2=O)C[C@@](O)(C(=O)CO)C[C@@H]3O[C@H]1C[C@H](N)[C@H](O)[C@H](C)O1 [Doxorubicin, reference compound], the CC50 at 48 h [3, 5] was 1.96 ± 0.11 µM.
